Reference: patent publication US20110003382A1, “USE OF CORTICOSTERONE FOR INCREASING EGG ANTIBODY” (WISCONSIN ALUMNI RESEARCH FOUNDATION, priority 2009, published 2011)

Columns and labels:
[1] = after 1 day of CORT at 20 mg/kg diet in drinking water; cited from earlier work
[2] = tested on: Single Comb White Leghorn hens; test: Peripheral blood mononuclear cell (PBMC) counts; type: in vivo
Experimental: Peripheral Blood Mononuclear Cell Counts. […] Whole blood (2-3 ml) was collected from wing vein into heparin-containing tubes (Becton Dickinson, Sparks, Md.). In 15-ml conical tubes, blood (2 ml) was layered on an equal volume (2 ml) of 1077 Histopaque (Sigma-Aldrich), and centrifuged at 400×g for 30 minutes at room temperature. Mononuclear cells were collected from the gradient interface, and re-suspended in PBS to the original blood volume (2 ml) or the sample. PBMCs were further diluted (1:16) in PBS, mixed with an equal volume of 0.4% trypan blue solution (Sigma-Aldrich), and counted, microscopically, with the aid of a hemacytometer.

[3] = tested on: Single Comb White Leghorn hens; test: Anti-PLA2 antibody titer in egg yolk of immunized hens by ELISA; type: in vivo
Description: In all Examples, Single Comb White Leghorn hens (SCWL) used were transported as pullets (18- to 22-weeks of age) from S&R Farms (Whitewater, Wis.) to University of Wisconsin—Madison Poultry Research Laboratory. Hens were individually housed in cages with raised bottom floors for at least four weeks before being assigned to an Example, and were 26- to 60-weeks of age at the beginning of experiments. Hens were fed, ad libitum, a standard corn-soybean meal based laying hen diet formulated to meet nutritional requirements. Housing was maintained under an automated lighting schedule with 16:8-h light-dark cycle. All procedures involving animals were approved by Animal Care Committee at University of Wisconsin, Madison.
The antigen selected for comparing the antibody response of hens was a 13 kDa soluble protein antigen, phospholipase A2 (PLA2) purified from porcine pancreas (Novozyme, Bagsvaerd, Denmark; greater than 90% purity based on SDS-PAGE). PLA2 was used because of its commercial relevance, and its previous use as a model antigen for studying hen antibody response (Trott, et al., 2008, “Additions of killed whole cell bacteria preparations to Freund complete adjuvant alter laying hen antibody response to soluble protein antigen,” Poult. Sci., 87(5):912-917). Hens were immunized according to methods described by Trott, et al. (2008). The primary immunization for each hen was a water-in-oil emulsion (50:50) that consisted of 3 mg PLA2 dissolved in 0.5 mL phosphate buffer saline (PBS), and emulsified with 0.5 mL of Freund Complete Adjuvant (FCA; DIFCO, Sparks, Md.). Seven days after the primary immunization, each hen received a booster injection containing 3 mg PLA2 dissolved in 0.5 mL PBS and emulsified with Freund Incomplete Adjuvant (FIA; DIFCO). All injections (primary and booster) were administered i.m. into each breast and thigh of hen (1 ml/hen at 0.25 mL/injection site). In all experiments, immunization of hens (primary and booster) occurred at approximately 10 A.M. to eliminate the potential confounding effect of endogenous CORT levels fluctuating due to circadian rhythms.
Based on previous experimentation (Trott et al., 2008; Schade et al., 2001, “Chicken egg yolk antibodies: Production and application,” Springer, Heidelberg, Germany) week three after primary immunization represented peak antibody titer in egg yolk; therefore, eggs were collected once per week beginning on week three and continuing until week eight or ten for repeated testing of anti-PLA2 antibody content using an ELISA (Trott, et al., 2008).
Anti-PLA2 antibody content of egg yolk and serum samples were measured by an ELISA (Trott, et al., 2008). A 96-well Nunc-Immuno Plate with MaxiSorp surface (Thermo Fischer Scientific, Waltham, Mass.) was coated overnight (100 μl per well) with PLA2 (Sigma Aldrich, St. Louis, Mo.) at a concentration of 10 μg/ml in 50 mM sodium bicarbonate. After washing, the plate was blocked (175 μl per well) for at least 1 hour with PBS containing 1% albumin from bovine serum albumin (BSA; Sigma Aldrich). Egg antibody was water-extracted from liquid egg yolk samples. Liquid egg yolk samples […] were pipetted with a positive displacement pipette (Rainin, Oakland, Calif.) and extracted overnight with 1.8 ml acidified PBS (pH 5). The extraction mixture was centrifuged at 1,500×g for 10 minutes, and the supernate was further diluted to 1:16,000 with PBS containing 1% BSA (pH 7). Serum samples were diluted 1:16,000 in PBS containing 1% BSA. In addition to the weekly egg yolk or serum samples, an ‘in-lab standard’ was applied to each ELISA plate. The standard applied to each plate consisted of a 2-fold serial dilution from 1:2,000 to 1:64,000 of water-extracted egg yolks from hens immunized against PLA2 in a previous trial. After coating, blocking, and washing the plate, duplicate samples and ‘in-lab standard’ (100 μl/well) were incubated for 1 hour on the plate followed by washing (6×). […]

broilers = details: dietary CORT 30 mg/kg diet for 1 week; cited from earlier work

C[C@]12C[C@H](O)[C@H]3[C@@H](CCC4=CC(=O)CC[C@@]43C)[C@@H]1CC[C@@H]2C(=O)CO [CORT, corticosterone]
plasma CORT concentrations [1]: significant increase
overall effect of CORT on PBMC counts ([2]; Example 3: CORT 5 days beginning day 7 before immunization, p=0.82): no effect
PBMC count ([2]; Example 3: CORT 5 days, week 1 after diet administration): 17,800 cells/μl blood
PBMC count as % of control-fed hens ([2]; Example 3: CORT 5 days, week 1 after diet administration, p=0.025): 49%
PBMC count ([2]; Example 3: CORT 5 days, week 2 after diet administration): 35,400 cells/μl blood
PBMC count ([2]; Example 4: CORT 30 mg/kg diet 6 days, week 1 after diet administration): 9,200 cells/μl blood
PBMC count as % of control-fed hens ([2]; Example 4: CORT 6 days, week 1 after diet administration, p<0.0001): 43%
PBMC count ([2]; Example 4: CORT 6 days, week 2): 12,900 cells/μl blood
PBMC count as % of control-fed hens ([2]; Example 4: CORT 6 days, week 2, p=0.001): 59%
PBMC count ([2]; Example 4: CORT 6 days, week 3, returned to control levels, p=0.57): 19,700 cells/μl blood
difference in antibody titer of egg yolks vs control-fed hens ([3]; Example 2: CORT 30 mg/kg diet for 2 days beginning on day 1 before primary immunization, weeks 3 to 6, p=0.24): no difference
antibody titer of egg yolks (Log2 titer) ([3]; Example 2: CORT 30 mg/kg diet for 2 days beginning on day 1 before primary immunization, weeks 3 to 6 after primary immunization): 15.52 Log2 titer
antibody titer of egg yolks (Log2 titer) ([3]; Example 3: CORT 30 mg/kg diet for 5 days beginning on day 7 before primary immunization, weeks 3 to 5 after primary immunization): 17.02 Log2 titer
difference in antibody titer of egg yolks vs control-fed hens ([3]; Example 3: CORT for 5 days beginning on day 7 before primary immunization, weeks 3 to 5, p=0.96): no difference
egg yolk antibody titer (Log2 titer) ([3]; Example 4: CORT 30 mg/kg diet for 6 days beginning on day 1 before primary immunization, weeks 3 to 5): 17.32 Log2 titer
egg yolk antibody titer (Log2 titer) ([3]; Example 4: CORT 6 days, entire study period weeks 3 to 9): 17.37 Log2 titer
fold higher egg yolk antibody titer vs control-fed hens ([3]; Example 4: CORT 6 days, weeks 3 to 5, p=0.006): 3.1 fold
fold increase in antibody titer of egg yolks vs control hens ([3]; Example 4: CORT 6 days, weeks 3 to 9, p=0.032): 1.8 fold
fold higher antibody titer of egg yolks vs control-fed hens ([3]; Example 5: CORT 9 days, weeks 3 to 10, p=0.00001): 3.0 fold
antibody titer of egg yolks (Log2 titer) ([3]; Example 5: dietary CORT for 9 days beginning on day 1 before primary immunization, weeks 3 to 10 after primary immunization): 16.50 Log2 titer
effect on body weight gain in broilers (broilers): negatively affect
